# Measurements published in patent US7960397B2, “6,9-disubstituted purine derivatives and their use as cosmetics and cosmetic compositions” (Institute of Experimental Botany, Academy of Sciences of …, priority 2007, dated 2011).
# Assays:
# [1] = tested on: cytokinin-dependent tobacco callus Nicotiana tabacum L. cv. Wisconsin 38; test: Cytokinin activity in tobacco callus bioassay; type: cell-based; settings: for concentration with highest activity: growth of tobacco callus, four weeks of cultivation, tested 10^−8 M to 10^−4 M; for Activity (%) [10^−5 mol · l^−1 BAP = 100%]: increase of fresh callus weight at the concentration with highest activity, 10^−5 M BAP = 100%
# Experimental: Estimation of cytokinin biological activity of novel compounds in callus bioassay. Cytokinin-dependent tobacco callus Nicotiana tabacum L. cv. […] Subcultivation was carried out every three weeks. Fourteen days before the bioassay, the callus tissue was transferred to the media without the compound tested. The biological activity was determined from the increase of the fresh callus weight after four weeks of cultivation. Five replicates were prepared for each concentration of the compound tested and the entire test was repeated twice. […] The relative activity of the compound at this concentration was calculated (Table 8). […] The compounds to be tested were dissolved in dimethylsulfoxide (DMSO) and the solution brought up to 10^−3 M with distilled water. This stock solution was further diluted with the respective media used for the biotest to a concentration ranging from 10^−8 M to 10^−4 M.
# [2] = tested on: Amaranthus caudatus cotyledon/hypocotyl explants; test: Amaranthus bioassay (betacyanin content); set-up: species or system Amaranthus caudatus var. atropurpurea; settings: for concentration with highest activity: betacyanin content after 48 h incubation, tested 10^−8 M to 10^−4 M; for Activity (%) [10^−5 mol · l^−1 BAP = 100%]: betacyanin content at the concentration with highest activity, 10^−5 M BAP = 100%
# Experimental: Testing of novel compounds for typical cytokinin activity in Amaranthus bioassay. A standard Amaranthus bioassay was performed with several modifications. The seeds of Amaranthus caudatus var. atropurpurea were surface-sterilized in 10% (w/v) N-chlorobenzenesulfonamide for 10 min and washed 5 times with deionized water. They were placed in 14 cm Petri dishes containing paper tissues saturated with deionized water. After 72 h of cultivation at 25° C. in darkness, the roots of the seedlings were cut off. The explants, consisting of two cotyledons and hypocotyls, were placed in 5 cm Petri dishes onto two layers of filter paper soaked with 1 ml of the incubation medium containing 10 mmol of NA2HPO4—KH2PO4, pH 6.8, 5 mmol of tyrosine and the compound to be tested. There were 20 explants per dish. The procedure was carried out under a green safe light in a darkroom. […] The concentration of betacyanin was determined from the absorbencies at 537 nm and 620 nm as follows: DA=A537 nm−A620 nm. […] Relative activity of the compound at this concentration was calculated. The activity obtained for 10^−5 M 6-benzylaminopurine (BAP) was defined as 100%.
# (§1) The compounds to be tested were dissolved in dimethylsulfoxide (DMSO) and the solution brought up to 10^−3 M with distilled water.
# [3] = tested on: excised wheat leaf tips; test: Antisenescence test, retention of chlorophyll in excised wheat leaf tips; set-up: species or system Triticum aestivum cv. Hereward; settings: for activity (%) [10^−4 mol · l^−1 BAP = 100%]: retention of chlorophyll in excised wheat leaf tips at the concentration with highest activity, 10 replicate determinations; for concentration with highest activity: retention of chlorophyll in excised wheat leaf tips, tested range 10^−8 M to 10^−4 M, 96 h in the dark at 25° C.
# Experimental: Testing of antisenescence properties of novel cytokinin compounds on wheat leaf segments. Seeds of winter wheat, Triticum aestivum cv. Hereward, were washed under running water for 24 hours and then sown on vermiculite soaked with the Knop's solution. They were placed in the grow chamber at 25° C. with a 16 h-8 h light period at 50 mmol.m^−2.s^−1. After 7 days, the first leaf was fully developed and the second leaf had started to grow. A 35 mm long tip section of the first leaf, was removed from each of 5 seedlings and trimmed slightly to a combined weight of 100 mg. The basal ends of the five leaf tips were placed in the wells of a microtiter polystyrene plate containing […] of the solution of the tested compound each. The entire plate was inserted into a plastic box lined with paper tissues soaked with distilled water to prevent leaf sections from drying out. After 96 h incubation in the dark at 25° C., the leaves were removed and chlorophyll was extracted by heating at 80° C. for 10 min in 5 ml of 80% ethanol (v/v). The sample volume was then restored to 5 ml by the addition of 80% ethanol (v/v). The absorbance of the extract was recorded at 665 nm. In addition, chlorophyll extracts from fresh leaves and leaf tips incubated in deionized water were measured. […] Relative activity of the compound at this concentration was calculated (Table 7). The activity obtained for 10^−4 M 6-benzylaminopurine (BAP) was defined as 100%. The values shown are means of five replicates and the whole experiment was repeated twice.
# as §1
# [4] = tested on: promyelocytic HL-60 leukemia; test: In vitro cytotoxicity, Calcein AM assay; settings: read-out: GI50 HL60; HL60, 72 hours, Calcein AM
# Experimental: (§2) Because only metabolically active cells cleave Calcein AM, these assays detect viable cells exclusively. The quantity of reduced Calcein AM corresponds to the number of vital cells in the culture.
# (§3) The cells were maintained in Nunc/Corning 80 cm^2 plastic tissue culture flasks and cultured in cell culture medium (DMEM with 5 g/l glucose, 2 mM glutamine, 100 U/ml penicillin, 100 mg/ml streptomycin, 10% fetal calf serum and sodium bicarbonate).
# (§4) The cell suspensions that were prepared and diluted according to the particular cell type and the expected target cell density (2,500-30,000 cells per well based on cell growth characteristics) were added by pipette (80 ml) into 96-well microtiter plates. Inoculates were allowed a pre-incubation period of 24 hours at 37° C. and 5% CO2 for stabilization. Four-fold dilutions of the intended test concentration were added at time zero in 20 ml aliquots to the microtiter plate wells. Usually, the compound tested was evaluated at six 4-fold dilutions. […] All drug concentrations were examined in duplicate. Incubations of cells with the tested compounds lasted for 72 hours at 37° C., in a 5% CO2 atmosphere and 100% humidity. At the end of the incubation period, the cells were assayed by using Calcein AM. Ten microliters of the stock solution were pipetted into each well and incubated for 1 hour. Fluorescence (FD) was measured with the Labsystem FIA Reader Fluoroscan Ascent (UK).
# [5] = tested on: breast carcinoma cell line MCF-7; test: In vitro cytotoxicity, Calcein AM assay; settings: read-out: GI50 MCF7; MCF7, 72 hours, Calcein AM
# Experimental: as §2, §3, §4
# [6] = tested on: mouse fibroblasts NIH3T3; test: In vitro cytotoxicity, Calcein AM assay; settings: read-out: GI50 NIH-3T3; NIH-3T3, 72 hours, Calcein AM
# Experimental: as §2, §3, §4
# [7] = tested on: human osteosarcoma HOS; test: In vitro cytotoxicity, Calcein AM assay; settings: read-out: GI50 HOS; HOS, 72 hours, Calcein AM
# Experimental: as §2, §3, §4
# [8] = tested on: human diploid fibroblasts (HCA cells, HCA20, HCA40, HCA60); test: Senescent cells (β-galactosidase staining) in culture of human fibroblasts; type: cell-based; settings: for SENESCENT CELLS (%) HCA20: human fibroblasts passage 20 (HCA20); for SENESCENT CELLS (%) HCA40: human fibroblasts passage 40 (HCA40); for SENESCENT CELLS (%) HCA60: human fibroblasts passage 60 (HCA60)
# Experimental: In this example, human diploid fibroblasts (HCA cells of various passage levels: passage 20—designated HCA20; passage 40—designated HCA40; passage 60—designated HCA60) were stained for β-galactosidase activity. The medium used for the cell cultivation was removed, the cells were washed twice in […], and fixed in 2-3 ml of fixing solution comprised of a 2% formaldehyde and 0.2% glutaraldehyde in PBS. The cells were incubated at room temperature for 5 minutes, and then washed twice with PBS. The cells were subsequently incubated at 37° C.
SMILES,concentration with highest activity [1],Activity (%) [10^−5 mol · l^−1 BAP = 100%] [1] [%],concentration with highest activity [2],Activity (%) [10^−5 mol · l^−1 BAP = 100%] [2] [%],activity (%) [10^−4 mol · l^−1 BAP = 100%] [3] [%],concentration with highest activity [3],GI50 [4] [µM],GI50 [5] [µM],GI50 [6] [µM],GI50 [7] [µM],SENESCENT CELLS (%) HCA20 [8] [%],SENESCENT CELLS (%) HCA40 [8] [%],SENESCENT CELLS (%) HCA60 [8] [%]
CCOC(C)n1cnc2c(NC/C=C(\C)CO)ncnc21 (stereo not drawn),10^−4 mol · l^−1,102.8,10^−4 mol · l^−1,92.5,92.5,10^−4 mol · l^−1,> 167,> 167,> 167,> 167,,,
C/C(=C\CNc1ncnc2c1ncn2CCCCCl)CO,10^−4 mol · l^−1,103.5,10^−4 mol · l^−1,123.8,73.8,10^−4 mol · l^−1,> 167,> 167,> 167,> 167,,,
C/C(=C\CNc1ncnc2c1ncn2C1CCCO1)CO (stereo not drawn),10^−5 mol · l^−1,89,10^−4 mol · l^−1,117,45,10^−4 mol · l^−1,> 167,> 167,> 167,> 167,,,
Oc1cccc(Nc2ncnc3c2ncn3C2CCCCO2)c1 (stereo not drawn) [3-hydroxyanilino / tetrahydropyran-2-yl],10^−5 mol · l^−1,65,10^−4 mol · l^−1,122,23,10^−4 mol · l^−1,,,,,5,4,28
"Oc1ccc(CNc2ncnc3c2ncn3CCCCCl)cc1 [4-hydroxybenzylamino / 4-chlorobutyl, 6-(4-hydroxybenzylamine)-9-(4-chlorobutyl)purine]",,,10^−4 mol · l^−1,33.4,33.4,10^−4 mol · l^−1,> 167,> 167,> 167,> 167,,,
Oc1ccccc1CNc1ncnc2c1ncn2C1CCCO1 (stereo not drawn) [6-(2-hydroxybenzylamino)-9-(tetrahydrofuran-2-yl)-purine],10^−5 mol · l^−1,78,10^−4 mol · l^−1,33,26,10^−4 mol · l^−1,,,,,4,2,26
Oc1ccccc1CNc1ncnc2c1ncn2C1CCCCO1 (stereo not drawn) [6-(2-hydroxybenzylamino)-9-(tetrahydropyran-2-yl)purine],10^−5 mol · l^−1,80,10^−4 mol · l^−1,41.6,23.6,10^−4 mol · l^−1,,,,,4,2,26
Oc1cccc(CNc2ncnc3c2ncn3C2CCCO2)c1 (stereo not drawn) [6-(3-hydroxybenzylamino)-9-(tetrahydrofuran-2-yl)-purine],10^−5 mol · l^−1,125,10^−4 mol · l^−1,107,113,10^−4 mol · l^−1,,,,,5,3,25
Oc1cccc(CNc2ncnc3c2ncn3C2CCCCO2)c1 (stereo not drawn) [6-(3-hydroxybenzylamino)-9-(tetrahydropyran-2-yl)purine],10^−5 mol · l^−1,139,10^−4 mol · l^−1,105.1,133.1,10^−4 mol · l^−1,,,,,5,3,25
CC(CO)CCNc1ncnc2c1ncn2C1CCCCO1 (stereo not drawn) [6-(4-hydroxy-3-methylbutylamino)-9-(tetrahydropyran-2-yl)purine],10^−5 mol · l^−1,112,10^−4 mol · l^−1,83,95,10^−4 mol · l^−1,,,,,5,2,25
"CCOCCn1cnc2c(NCc3ccc(O)cc3)ncnc21 [Compound 133, 6-(4-hydroxybenzylamine)-9-(1-ethoxyeth-2-yl)purine]",,,,,,,> 167,> 167,> 167,> 167,,,
